These results are taken from PubChem BioAssay AID330 (DTP/NCI, 2004).

Molecules are shown by their SMILES. Values joined by “and” are separate entries in the source; they are usually repeats but may differ in a detail not shown here. Equal entries are not always repeated. Inconclusive results and toxic doses are left out.

For the assay, the system named is P388 leukemia ip, CD2F1 mice, survival T/C. The experiment in a line: NCI In Vivo Anticancer Drug Screen. Data for tumor model P388 Leukemia (intraperitoneal) in CD2F1 (CDF1) mice. Particulars: endpoint: median survival time, higher = longer survival. In short, it runs like this: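 Mice carrying the transplanted tumor received test compound or vehicle. Survival was recorded in each group, and the value is the treated-group measurement divided by that of the vehicle-treated control group.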

Where [1] appears, read: dose: 50.0 mg/kg/injection, schedule: Q01DX005 (ip), vehicle: saline with Tween-80.
The mark [2] stands for this setting: dose: 100.0 mg/kg/injection, schedule: Q01DX005 (ip), vehicle: saline with Tween-80.
Where [3] appears, read: dose: 60.0 mg/kg/injection, schedule: Q01DX005 (ip), vehicle: Klucel (hydroxypropylcellulose) (HPC).
Where [4] appears, read: dose: 60.0 mg/kg/injection, schedule: Q01DX005 (ip), vehicle: saline with Tween-80.
Where [5] appears, read: dose: 120.0 mg/kg/injection, schedule: Q01DX005 (ip), vehicle: saline with Tween-80.
[6] abbreviates: dose: 240.0 mg/kg/injection, schedule: Q01DX005 (ip), vehicle: saline with Tween-80.
Where [7] appears, read: dose: 200.0 mg/kg/injection, schedule: Q01DX005 (ip), vehicle: saline with Tween-80.

`COc1cccc2c1C(=O)c1c(O)c3c(c(O)c1C2=O)C[C@@](O)(C(O)CO)C[C@@H]3OC1CC(N)C(O)C(C)O1` (stereo partly drawn): the T/C was 155 % of control and 150 % of control (dose: 0.78 mg/kg/injection, schedule: Q01DX009 (ip), vehicle: water); 174 % of control and 168 % of control (dose: 1.56 mg/kg/injection, schedule: Q01DX009 (ip), vehicle: water); 183 % of control (dose: 2.0 mg/kg/injection, schedule: Q01DX009 (ip), vehicle: water); 192 % of control and 200 % of control (dose: 3.13 mg/kg/injection, schedule: Q01DX009 (ip), vehicle: water); 211 % of control (dose: 4.0 mg/kg/injection, schedule: Q01DX009 (ip), vehicle: water); 260 % of control and 197 % of control and 264 % of control (dose: 6.25 mg/kg/injection, schedule: Q01DX009 (ip), vehicle: water). Also, the T/C (dose: 6.25 mg/kg/injection, schedule: Q04DX003 (ip), vehicle: water) was 116 % of control; the T/C (dose: 8.0 mg/kg/injection, schedule: Q01DX009 (ip), vehicle: water) is 266 % of control; the T/C (dose: 12.5 mg/kg/injection, schedule: Q01DX009 (ip), vehicle: water) was 95 % of control; the T/C (dose: 16.0 mg/kg/injection, schedule: Q01DX009 (ip), vehicle: water) is 94 % of control; the T/C (dose: 25.0 mg/kg/injection, schedule: Q04DX003 (ip), vehicle: water) was 198 % of control; the T/C (dose: 50.0 mg/kg/injection, schedule: Q04DX003 (ip), vehicle: water) was 172 % of control.
`CO[C@H]1/C=C/O[C@@]2(C)Oc3c(C)c(O)c4c(O)c(c(/C=N/N5C(C)CN(Cc6ccc(C#N)cc6)CC5C)c(O)c4c3C2=O)NC(=O)/C(C)=C\C=C\[C@H](C)[C@H](O)[C@@H](C)[C@@H](O)[C@@H](C)[C@H](OC(C)=O)[C@@H]1C` (stereo partly drawn): the T/C is 93 % of control (dose: 12.5 mg/kg/injection, schedule: Q01DX009 (ip), vehicle: Klucel (hydroxypropylcellulose) (HPC)); 107 % of control (dose: 12.5 mg/kg/injection, schedule: Q01DX009 (ip), vehicle: saline with Tween-80); 87 % of control (dose: 25.0 mg/kg/injection, schedule: Q01DX009 (ip), vehicle: Klucel (hydroxypropylcellulose) (HPC)); 92 % of control (dose: 25.0 mg/kg/injection, schedule: Q01DX009 (ip), vehicle: saline with Tween-80); 86 % of control (dose: 50.0 mg/kg/injection, schedule: Q01DX009 (ip), vehicle: Klucel (hydroxypropylcellulose) (HPC)); 100 % of control and 95 % of control (dose: 50.0 mg/kg/injection, schedule: Q01DX009 (ip), vehicle: saline with Tween-80). Further, the T/C is, setting by setting: (dose: 100.0 mg/kg/injection, schedule: Q01DX009 (ip), vehicle: Klucel (hydroxypropylcellulose) (HPC)) 107 % of control; (dose: 100.0 mg/kg/injection, schedule: Q01DX009 (ip), vehicle: saline with Tween-80) 113 % of control; (dose: 200.0 mg/kg/injection, schedule: Q01DX009 (ip), vehicle: Klucel (hydroxypropylcellulose) (HPC)) 107 % of control.
With `CCC(C)C(F)C(=O)O` (stereo not drawn), the T/C by setting is: under setting [1], 98 % of control; under setting [2], 88 % of control.
In the case of `CCc1nn2c(-c3cnns3)nnc2s1`, the T/C (dose: 100.0 mg/kg/injection, schedule: Q01DX001 (ip), vehicle: Klucel (hydroxypropylcellulose) (HPC)) is 99 % of control; the T/C (dose: 200.0 mg/kg/injection, schedule: Q01DX001 (ip), vehicle: Klucel (hydroxypropylcellulose) (HPC)) was 104 % of control; the T/C (dose: 400.0 mg/kg/injection, schedule: Q01DX001 (ip), vehicle: Klucel (hydroxypropylcellulose) (HPC)) was 99 % of control.
Turning to `CN(NC(=O)C(=O)NCc1ccco1)C(=O)NC1CCCCC1`, the T/C reads like this: (dose: 50.0 mg/kg/injection, schedule: Q01DX005 (ip), vehicle: Klucel (hydroxypropylcellulose) (HPC)) 103 % of control; (dose: 100.0 mg/kg/injection, schedule: Q01DX005 (ip), vehicle: Klucel (hydroxypropylcellulose) (HPC)) 100 % of control; (dose: 200.0 mg/kg/injection, schedule: Q01DX005 (ip), vehicle: Klucel (hydroxypropylcellulose) (HPC)) 96 % of control.
Regarding `COC1OC2COC(c3ccccc3)OC2C(OC(C)=O)C1OC(C)=O` (stereo not drawn), the T/C (dose: 12.5 mg/kg/injection, schedule: Q01DX009 (ip), vehicle: other) was 98 % of control; the T/C (dose: 25.0 mg/kg/injection, schedule: Q01DX009 (ip), vehicle: other) was 99 % of control; the T/C (dose: 50.0 mg/kg/injection, schedule: Q01DX009 (ip), vehicle: other) is 100 % of control; the T/C (dose: 100.0 mg/kg/injection, schedule: Q01DX009 (ip), vehicle: other) is 95 % of control; the T/C (dose: 200.0 mg/kg/injection, schedule: Q01DX009 (ip), vehicle: other) is 100 % of control.
In the case of `CC1=C(C(=O)Nc2ccccc2C)C(c2cccc([N+](=O)[O-])c2)C(C(=O)Nc2ccccc2C)=C(C)N1`, the T/C is 102 % of control (dose: 15.0 mg/kg/injection, schedule: Q01DX005 (ip), vehicle: Klucel (hydroxypropylcellulose) (HPC)); 93 % of control (dose: 30.0 mg/kg/injection, schedule: Q01DX005 (ip), vehicle: Klucel (hydroxypropylcellulose) (HPC)); 88 % of control and 97 % of control under setting [3].
On to `c1csc(C[N+]23CN4CN(CN(C4)C2)C3)c1`, for which the T/C is, setting by setting: (dose: 130.0 mg/kg/injection, schedule: Q01DX009 (ip), vehicle: saline) 109 % of control; (dose: 200.0 mg/kg/injection, schedule: Q01DX009 (ip), vehicle: saline) 118 % of control; (dose: 300.0 mg/kg/injection, schedule: Q01DX009 (ip), vehicle: saline) 123 % of control.
Consider `CCOC(=O)c1c(C(=O)OCC)c2cccn2c2c1cnn2-c1ccccc1`, for which the T/C under setting [4] was 99 % of control, the T/C under setting [5] was 93 % of control and the T/C under setting [6] is 91 % of control.
On to `CS(=O)(=O)OCCN(CCOS(C)(=O)=O)c1ccc(C=Nc2ccc(-c3csc(Cc4ccccc4)n3)cc2)cc1`, for which the T/C is, setting by setting: (dose: 6.25 mg/kg/injection, schedule: Q01DX009 (ip), vehicle: saline) 115 % of control; (dose: 12.5 mg/kg/injection, schedule: Q01DX009 (ip), vehicle: saline) 110 % of control; (dose: 12.5 mg/kg/injection, schedule: Q01DX009 (ip), vehicle: suspension in saline) 163 % of control; (dose: 25.0 mg/kg/injection, schedule: Q01DX009 (ip), vehicle: suspension in saline) 164 % of control; (dose: 50.0 mg/kg/injection, schedule: Q01DX009 (ip), vehicle: saline) 153 % of control; (dose: 50.0 mg/kg/injection, schedule: Q01DX009 (ip), vehicle: suspension in saline) 174 % of control.
Regarding `O=[N+]([O-])c1ccc2c(c1)c(S(=O)(=O)O)cc1nonc12`, the T/C reads like this: (dose: 12.5 mg/kg/injection, schedule: Q01DX005 (ip), vehicle: saline) 98 % of control; (dose: 25.0 mg/kg/injection, schedule: Q01DX005 (ip), vehicle: saline) 95 % of control; under setting [1], 95 % of control; (dose: 50.0 mg/kg/injection, schedule: Q01DX005 (ip), vehicle: saline) 90 % of control; under setting [7], 93 % of control.
Consider `N#CC12CCCC(=O)N1c1ccccc1S2` (stereo not drawn), for which the T/C was 108 % of control under setting [4], 104 % of control under setting [5] and 95 % of control under setting [6].
In the case of `Cc1cc(=NC(C)(C)C)nc2c3ccccc3c(Cl)cn12`, the T/C runs as follows: (dose: 1.56 mg/kg/injection, schedule: Q01DX005 (ip), vehicle: saline with Tween-80) 100 % of control; (dose: 3.13 mg/kg/injection, schedule: Q01DX005 (ip), vehicle: saline with Tween-80) 100 % of control; (dose: 6.25 mg/kg/injection, schedule: Q01DX005 (ip), vehicle: saline with Tween-80) 103 % of control and 98 % of control.
`O=C1c2ccccc2-c2nc3ccccc3nc21`: the T/C is, setting by setting: under setting [1], 94 % of control; under setting [2], 94 % of control.
For `COc1ccc(S(=O)(=O)F)cc1NC(C)=O`, the T/C reads like this: under setting [3], 105 % of control; (dose: 120.0 mg/kg/injection, schedule: Q01DX005 (ip), vehicle: Klucel (hydroxypropylcellulose) (HPC)) 101 % of control.
As to `O=C(/C(=C\c1ccccc1[N+](=O)[O-])S(=O)(=O)c1ccccc1)c1ccc([N+](=O)[O-])cc1`, the T/C by setting is: under setting [1], 98 % of control; under setting [2], 103 % of control; under setting [7], 95 % of control.
Turning to `COc1ccc2sc3cccc(NCCN(C)C)c3c(=O)c2c1`, the T/C by setting is: (dose: 12.5 mg/kg/injection, schedule: Q01DX005 (ip), vehicle: saline with Tween-80) 112 % of control; (dose: 25.0 mg/kg/injection, schedule: Q01DX005 (ip), vehicle: saline with Tween-80) 108 % of control; under setting [1], 100 % of control and 95 % of control; under setting [2], 98 % of control and 99 % of control; under setting [7], 106 % of control; (dose: 400.0 mg/kg/injection, schedule: Q01DX005 (ip), vehicle: saline with Tween-80) 98 % of control.
